Like-named read-outs stand apart in the source and are kept apart here. *1 amine or outer side, *2 acyl side, *3 side chain or, on linkers, in order; H or OH if unused. Where a SMILES comes first, the peptide text is derived from it. Where no end group is shown, it is not given here. Side-chain parts run from the residue outwards. The star is where a group is joined. C18 diacid = O=C(O)CCCCCCCCCCCCCCCCC(=O)*; γGlu = O=C(O)[C@H](CCC(=O)[*:2])N[*:1]; AEEA = NCCOCCOCC(=O)O
Key:
Format in all cases: in vivo
db/db mice [1] = assay: Fasting blood glucose after single injection in type II diabetic db/db mice (FIG. 1); details: 0.05 mg/kg s.c. single, day 4 and day 5
Protocol: The dosage is 0.05 mg/kg for each, and the administration time is set as 0 h. Fasting blood glucose is measured after fasting for 6-8 h every day, and the fasting blood glucose after administration is measured every day until the fasting blood glucose value of each animal of the test group recovers to the value measured before administration. The blood glucose value measured before administration is called the basal blood glucose value, and is set as 0. Change of the fasting blood glucose (Δ: delta)=Blood glucose value after administration-Basal blood glucose value before administration.

db/db mice [2] = assay: Glucose-lowing effect of different doses in type II diabetic db/db mice (fasting, random blood glucose, OGTT G-AUC); details: for Average changes of the blood glucose area under the curve after administration: OGTT
Protocol: The administration time is set as 0 h, and the fasting blood glucose and OGTT (oral glucose tolerance assay) are determined after fasting for 7-8 h every day, then 10% glucose is intragastrically administered at 1 g/kg body weight, and then blood is collected from the tip of the tail to measure the blood glucose in real time at 0, 0.5, 1, and 2 h after glucose load. After administration, the blood glucose is measured every day before fasting as random blood glucose, until the fasting blood glucose value of each animal of the test group recovers to the value before administration. All of the basal blood glucose value, random blood glucose value, and the blood glucose area under the curve (G-AUC) value determined before administration are bases for evaluating the efficacy of the medicament, and they are set as 0.
Change of the blood glucose (Δ: delta)=Blood glucose value after administration-Basal blood glucose value before administration.
Change of the blood glucose area under the curve (Δ: delta)=blood glucose area under the curve after administration-blood glucose area under the curve before administration.

CD-1 mice = details: 0.15 mg/kg s.c.
Protocol: Twenty-eight healthy female CD-1 mice aged 4-6 weeks are selected and divided into 4 groups, and they are injected subcutaneously with M4, M5, M7 and M0 at a dose of 0.15 mg/kg body weight.

ICR mice = system: ICR mice; parameters: G-AUC: unit not given here
Protocol: 20% glucose is intragastrically administered every day according to the time schedule of 4 h, 1 d, 2 d, 3 d, 4 d, and 5 d, at a dose of 2 g/kg body weight, and fasting for 6 hours before administering the glucose; and blood is respectively collected from the tip of the tail at 0 h, 0.5 h, 1 h and 2 h after giving the 20% glucose, then measuring the blood glucose value in real time by using Roche blood glucose test paper.

## CC[C@H](C)[C@H](NC(=O)[C@H](Cc1ccccc1)NC(=O)[C@H](CCC(=O)O)NC(=O)[C@H](CCCNC(=N)N)NC(=O)[C@H](C)NC(=O)[C@H](C)NC(=O)[C@H](CCC(N)=O)NC(=O)[C@H](CCC(=O)O)NC(=O)[C@H](CCC(=O)O)NC(=O)[C@H](CC(C)C)NC(=O)[C@H](Cc1ccc(O)cc1)NC(=O)[C@H](CO)NC(=O)[C@H](CO)NC(=O)[C@@H](NC(=O)[C@H](CC(=O)O)NC(=O)[C@H](CO)NC(=O)[C@@H](NC(=O)[C@H](Cc1ccccc1)NC(=O)[C@@H](NC(=O)CNC(=O)[C@H](CCC(=O)O)NC(=O)[C@@H](NC(=O)[C@@H](N)Cc1c[nH]cn1)[C@@H](C)O)[C@@H](C)O)[C@@H](C)O)C(C)C)C(=O)N[C@@H](CCCCNC(=O)COCCOCCNC(=O)COCCOCCNC(=O)CC[C@H](NC(=O)CCCCCCCCCCCCCCCCC(=O)O)C(=O)O)C(=O)N[C@@H](Cc1c[nH]c2ccccc12)C(=O)N[C@@H](CC(C)C)C(=O)N[C@H](C(=O)N[C@@H](CCCNC(=N)N)C(=O)NCC(=O)N[C@@H](CCCNC(=N)N)C(=O)NCC(=O)O)C(C)C [M13] (H-HTEGTFTSDVSSYLEEQAAREFIK([AEEA-AEEA-γGlu-C18 diacid])WLVRGRG-OH; N-terminus and C-terminus assumed)
db/db mice [1]
  glucose-lowing effect compared with Semaglutide (FIG. 1): better than that of Semaglutide

## N-ε^26-[2-(2-[2-(2-[2-(2[4-(17-carboxyheptadecanoylamino)-4(s)-carboxybutyrylamino]ethoxy)ethoxy]acetylamino)ethoxy]ethoxy)acetyl]Val^8Glu^22Lys^26Arg^34-GLP-1(7-37) peptide (HVEGTFTSDVSSYLEEQAAK([AEEA-AEEA-γGlu-C18 diacid])EFIAWLVRGRG) [M0, Lys at position 26, disclosed in CN107033234A]
db/db mice [2]; 0.015 mg/kg dosage group
  time after administration at which G-AUC returns to the base before administration: 27 h
  time after administration at which fasting blood glucose returns to the basal blood glucose base: 51 h
  time after administration at which random blood glucose returns to the base before administration: 67 h
db/db mice [2]; 0.015 mg/kg s.c., 3 h
  Average changes of fasting blood glucose after administration: -3.5 mM
  Average changes of the blood glucose area under the curve after administration: -9.0 mmol/L/h
db/db mice [2]; 0.015 mg/kg s.c., 6 h
  Average changes of random blood glucose after administration: -15.7 mM
db/db mice [2]; 0.015 mg/kg s.c., 19 h
  Average changes of random blood glucose after administration: -13.5 mM
db/db mice [2]; 0.015 mg/kg s.c., 27 h
  Average changes of fasting blood glucose after administration: -2.7 mM
  Average changes of the blood glucose area under the curve after administration: -5.2 mmol/L/h
db/db mice [2]; 0.015 mg/kg s.c., 43 h
  Average changes of random blood glucose after administration: -10.1 mM
db/db mice [2]; 0.015 mg/kg s.c., 51 h
  Average changes of fasting blood glucose after administration: -2.4 mM
  Average changes of the blood glucose area under the curve after administration: 1.1 mmol/L/h
db/db mice [2]; 0.015 mg/kg s.c., 67 h
  Average changes of random blood glucose after administration: -3.1 mM
db/db mice [2]; 0.015 mg/kg s.c., 75 h
  Average changes of fasting blood glucose after administration: 2.5 mM
  Average changes of the blood glucose area under the curve after administration: 8.2 mmol/L/h
db/db mice [2]; 0.015 mg/kg s.c., 91 h
  Average changes of random blood glucose after administration: -0.1 mM
db/db mice [2]; 0.015 mg/kg s.c., 99 h
  Average changes of fasting blood glucose after administration: 3.9 mM
  Average changes of the blood glucose area under the curve after administration: 7.9 mmol/L/h
db/db mice [2]; 0.015 mg/kg s.c., 115 h
  Average changes of random blood glucose after administration: 4.9 mM
db/db mice [2]; 0.015 mg/kg s.c., 123 h
  Average changes of fasting blood glucose after administration: 3.7 mM
  Average changes of the blood glucose area under the curve after administration: 13.0 mmol/L/h
db/db mice [2]; 0.015 mg/kg s.c., 139 h
  Average changes of random blood glucose after administration: 5.9 mM
db/db mice [2]; 0.015 mg/kg s.c., 147 h
  Average changes of fasting blood glucose after administration: 9.8 mM
  Average changes of the blood glucose area under the curve after administration: 21.9 mmol/L/h
db/db mice [2]; 0.15 mg/kg dosage group
  time after administration at which G-AUC returns to the base before administration: 51 h
  time after administration at which fasting blood glucose returns to the basal blood glucose base: 75 h
  time after administration at which random blood glucose returns to the base before administration: 67 h
db/db mice [2]; 0.15 mg/kg s.c., 3 h
  Average changes of fasting blood glucose after administration: -4.1 mM
  Average changes of the blood glucose area under the curve after administration: -10.3 mmol/L/h
db/db mice [2]; 0.15 mg/kg s.c., 6 h
  Average changes of random blood glucose after administration: -15.7 mM
db/db mice [2]; 0.15 mg/kg s.c., 19 h
  Average changes of random blood glucose after administration: -14.8 mM
db/db mice [2]; 0.15 mg/kg s.c., 27 h
  Average changes of fasting blood glucose after administration: -3.0 mM
  Average changes of the blood glucose area under the curve after administration: -10.2 mmol/L/h
db/db mice [2]; 0.15 mg/kg s.c., 43 h
  Average changes of random blood glucose after administration: -14.1 mM
db/db mice [2]; 0.15 mg/kg s.c., 51 h
  Average changes of fasting blood glucose after administration: -3.2 mM
  Average changes of the blood glucose area under the curve after administration: -7.1 mmol/L/h
db/db mice [2]; 0.15 mg/kg s.c., 67 h
  Average changes of random blood glucose after administration: -7.1 mM
db/db mice [2]; 0.15 mg/kg s.c., 75 h
  Average changes of fasting blood glucose after administration: -0.7 mM
  Average changes of the blood glucose area under the curve after administration: 1.5 mmol/L/h
db/db mice [2]; 0.15 mg/kg s.c., 91 h
  Average changes of random blood glucose after administration: 1.7 mM
db/db mice [2]; 0.15 mg/kg s.c., 99 h
  Average changes of fasting blood glucose after administration: 1.4 mM
  Average changes of the blood glucose area under the curve after administration: 3.9 mmol/L/h
db/db mice [2]; 0.15 mg/kg s.c., 115 h
  Average changes of random blood glucose after administration: 4.5 mM
db/db mice [2]; 0.15 mg/kg s.c., 123 h
  Average changes of fasting blood glucose after administration: 4.4 mM
  Average changes of the blood glucose area under the curve after administration: 9.9 mmol/L/h
db/db mice [2]; 0.15 mg/kg s.c., 139 h
  Average changes of random blood glucose after administration: 7.8 mM
db/db mice [2]; 0.15 mg/kg s.c., 147 h
  Average changes of fasting blood glucose after administration: 6.7 mM
  Average changes of the blood glucose area under the curve after administration: 16.0 mmol/L/h
CD-1 mice; from Table 4
  duration of glucose-lowing effect in normal mice: about 3 days
CD-1 mice; Table 4, CD-1 mice, 6 h
  Inhibition rate (blood glucose): 38.47%
CD-1 mice; Table 4, CD-1 mice, 30 h
  Inhibition rate (blood glucose): 33.79%
CD-1 mice; Table 4, CD-1 mice, 54 h
  Inhibition rate (blood glucose): 25.18%
CD-1 mice; Table 4, CD-1 mice, 78 h
  Inhibition rate (blood glucose): 13.43%
CD-1 mice; Table 4, CD-1 mice, 102 h
  Inhibition rate (blood glucose): −1.05%
CD-1 mice; Table 5 (second experiment), CD-1 mice, 6 h
  Inhibition rate (blood glucose): 26.71%
CD-1 mice; Table 5 (second experiment), CD-1 mice, 30 h
  Inhibition rate (blood glucose): 33.57%
CD-1 mice; Table 5 (second experiment), CD-1 mice, 54 h
  Inhibition rate (blood glucose): 17.32%
CD-1 mice; Table 5 (second experiment), CD-1 mice, 78 h
  Inhibition rate (blood glucose): 8.97%
CD-1 mice; Table 5 (second experiment), CD-1 mice, 102 h
  Inhibition rate (blood glucose): −12.89%
ICR mice; 0 h (before administration)
  G-AUC: 18.0 ± 1.9
ICR mice; 0.15 mg/kg s.c. single
  time the glucose-lowing effect is maintained: 3 days
ICR mice; 0.15 mg/kg s.c. single, 4 h
  G-AUC: 11.1 ± 1.2
  Inhibition rate (blood glucose): 38.47%
ICR mice; 0.15 mg/kg s.c. single, 1 d
  G-AUC: 11.9 ± 0.7
  Inhibition rate (blood glucose): 33.79%
ICR mice; 0.15 mg/kg s.c. single, 2 d
  G-AUC: 13.5 ± 1.1
  Inhibition rate (blood glucose): 25.18%
ICR mice; 0.15 mg/kg s.c. single, 3 d
  G-AUC: 15.6 ± 1.3
  Inhibition rate (blood glucose): 13.43%
ICR mice; 0.15 mg/kg s.c. single, 4 d
  G-AUC: 18.2 ± 1.1
  Inhibition rate (blood glucose): 0.60%

— patent US12508300B2, “Acylated GLP-1 derivative” (Sciwind Biosciences Co., Ltd., priority 2019, dated 2025)
